Assay results from article PMC3556037, “Stimulation of Inositol 1,4,5-Trisphosphate (IP3) Receptor Subtypes by Analogues of IP3” (PLoS ONE, 2013).
Like-named read-outs stand apart in the source and are kept apart here.

What was measured:
Assay in all cases: Ca2+ release from ER of permeabilized DT40 cells, luminal Mag fluo-4
IP3R3 [1] = biological target: T1, IP3R3 (Rattus norvegicus, UniProt Q63269); type: cell-based
T1 construct: gene Itpr3; full-length, homotetramer, stably expressed in DT40 cells lacking all endogenous IP3R; saponin-permeabilized cells
T1 sequence (Q63269 whole entry): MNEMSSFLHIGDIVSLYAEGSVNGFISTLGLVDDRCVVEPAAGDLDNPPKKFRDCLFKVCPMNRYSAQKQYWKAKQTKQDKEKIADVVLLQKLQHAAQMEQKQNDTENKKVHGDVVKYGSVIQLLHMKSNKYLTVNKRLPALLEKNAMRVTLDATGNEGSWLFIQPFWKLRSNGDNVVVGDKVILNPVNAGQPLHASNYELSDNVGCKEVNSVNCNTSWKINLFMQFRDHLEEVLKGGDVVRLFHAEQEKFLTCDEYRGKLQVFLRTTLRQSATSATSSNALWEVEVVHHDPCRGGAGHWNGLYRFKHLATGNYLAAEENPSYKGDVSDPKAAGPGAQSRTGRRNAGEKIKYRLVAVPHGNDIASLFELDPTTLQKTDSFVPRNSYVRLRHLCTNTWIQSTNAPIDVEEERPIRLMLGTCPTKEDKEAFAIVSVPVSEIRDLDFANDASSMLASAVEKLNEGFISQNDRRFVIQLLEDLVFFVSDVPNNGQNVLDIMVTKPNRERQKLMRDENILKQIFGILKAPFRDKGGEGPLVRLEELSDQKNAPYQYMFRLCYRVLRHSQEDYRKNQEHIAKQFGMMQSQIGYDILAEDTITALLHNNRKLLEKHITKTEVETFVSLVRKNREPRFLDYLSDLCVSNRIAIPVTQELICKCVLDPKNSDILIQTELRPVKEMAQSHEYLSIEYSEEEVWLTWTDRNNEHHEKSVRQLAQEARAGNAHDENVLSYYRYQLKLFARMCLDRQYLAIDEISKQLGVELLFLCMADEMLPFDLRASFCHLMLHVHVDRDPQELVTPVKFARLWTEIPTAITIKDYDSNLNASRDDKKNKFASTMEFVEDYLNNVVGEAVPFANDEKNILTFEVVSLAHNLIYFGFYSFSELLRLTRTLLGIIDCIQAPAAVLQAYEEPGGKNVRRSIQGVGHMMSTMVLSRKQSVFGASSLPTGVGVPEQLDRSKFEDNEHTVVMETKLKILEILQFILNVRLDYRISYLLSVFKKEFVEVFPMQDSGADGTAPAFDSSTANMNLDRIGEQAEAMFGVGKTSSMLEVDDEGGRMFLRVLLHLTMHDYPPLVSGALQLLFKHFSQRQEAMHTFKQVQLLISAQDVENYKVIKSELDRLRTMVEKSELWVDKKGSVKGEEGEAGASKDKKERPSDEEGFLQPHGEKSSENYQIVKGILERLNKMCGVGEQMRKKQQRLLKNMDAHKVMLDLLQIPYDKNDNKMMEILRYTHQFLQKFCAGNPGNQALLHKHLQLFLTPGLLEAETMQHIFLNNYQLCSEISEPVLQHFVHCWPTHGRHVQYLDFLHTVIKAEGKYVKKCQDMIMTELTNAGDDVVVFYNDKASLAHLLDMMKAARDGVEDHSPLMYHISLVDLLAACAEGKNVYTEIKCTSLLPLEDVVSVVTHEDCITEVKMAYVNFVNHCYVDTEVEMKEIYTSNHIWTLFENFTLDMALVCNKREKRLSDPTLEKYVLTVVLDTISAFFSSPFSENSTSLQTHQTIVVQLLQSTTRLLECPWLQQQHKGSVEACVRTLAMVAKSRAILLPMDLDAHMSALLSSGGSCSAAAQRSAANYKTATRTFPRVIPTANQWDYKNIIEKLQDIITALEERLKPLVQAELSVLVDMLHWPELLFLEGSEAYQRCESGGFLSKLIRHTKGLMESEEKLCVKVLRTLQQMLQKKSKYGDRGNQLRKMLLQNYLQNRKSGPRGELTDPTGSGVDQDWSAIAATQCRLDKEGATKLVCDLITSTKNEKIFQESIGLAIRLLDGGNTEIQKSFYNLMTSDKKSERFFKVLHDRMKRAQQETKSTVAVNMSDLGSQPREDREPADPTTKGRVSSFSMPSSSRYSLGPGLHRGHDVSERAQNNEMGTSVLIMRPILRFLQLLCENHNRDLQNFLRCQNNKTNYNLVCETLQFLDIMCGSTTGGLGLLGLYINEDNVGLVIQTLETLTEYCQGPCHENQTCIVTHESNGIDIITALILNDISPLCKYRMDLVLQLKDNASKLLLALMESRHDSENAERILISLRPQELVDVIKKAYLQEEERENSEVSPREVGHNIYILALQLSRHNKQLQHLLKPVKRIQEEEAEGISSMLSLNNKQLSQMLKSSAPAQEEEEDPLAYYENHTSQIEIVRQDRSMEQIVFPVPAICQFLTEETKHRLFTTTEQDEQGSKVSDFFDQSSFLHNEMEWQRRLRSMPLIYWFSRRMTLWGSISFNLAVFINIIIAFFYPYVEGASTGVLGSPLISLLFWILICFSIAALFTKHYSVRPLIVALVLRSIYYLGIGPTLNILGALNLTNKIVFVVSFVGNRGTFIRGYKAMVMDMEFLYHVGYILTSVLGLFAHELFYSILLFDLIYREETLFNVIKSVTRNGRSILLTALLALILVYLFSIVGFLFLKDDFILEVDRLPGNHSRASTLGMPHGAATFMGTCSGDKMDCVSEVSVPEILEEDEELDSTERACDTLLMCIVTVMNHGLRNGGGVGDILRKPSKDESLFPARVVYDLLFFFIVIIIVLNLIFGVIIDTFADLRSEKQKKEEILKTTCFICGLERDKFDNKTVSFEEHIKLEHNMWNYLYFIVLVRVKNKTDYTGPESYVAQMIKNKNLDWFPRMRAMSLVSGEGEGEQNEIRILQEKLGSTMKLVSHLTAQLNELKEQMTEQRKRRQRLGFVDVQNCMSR
Excerpt: (§1) Ca2+ release from ER of permeabilized DT40 cells, luminal Mag fluo-4 on IP3R3

IP3R2 = biological target: T2, IP3R2 (Mus musculus, UniProt Q9Z329); type: cell-based
T2 construct: gene Itpr2; full-length, homotetramer, stably expressed in DT40 cells lacking all endogenous IP3R; saponin-permeabilized cells
Excerpt: Ca2+ release from ER of permeabilized DT40 cells, luminal Mag fluo-4 on IP3R2

IP3R3 [2] = biological target: T1, IP3R3; type: biochemical
Excerpt: as §1

[3] = 100 µM, 1.5 mM MgATP, free Ca2+ ~220 nM, pH 7, 20 °C, thapsigargin 1 µM, unreliable: paper suspects minor contamination by active IP3

EC50 (IP3R3 [1]) [µM] | EC50 (IP3R2) [µM] | EC50 (IP3R3 [2]) [µM] | IP3R3 / Ca^2+release (%) (IP3R3 [1]; [3]) | IP3R2 / Ca^2+release (%) (IP3R2; [3]) | Structure (SMILES)
0.324 | 0.115 |  |  |  | O=P(O)(O)O[C@@H]1[C@@H](O)[C@H](OP(=O)(O)O)C[C@H](O)[C@H]1OP(=O)(O)O [2-deoxy(1,4,5)IP3]
 | 5.89 | 15.8 |  |  | O=P(O)(O)O[C@@H]1[C@@H](O)[C@H](OP(=O)(O)O)[C@H](O)C[C@H]1OP(=O)(O)O [3-deoxy(1,4,5)IP3]
15.8 | 12.6 |  |  |  | O=P(O)(O)O[C@@H]1[C@@H](O)[C@@H](O)[C@@H](OP(=O)(O)O)[C@H](OP(=O)(O)O)[C@H]1O [(1,4,6)IP3]
0.417 | 0.145 |  |  |  | O=P(O)(O)O[C@@H]1[C@H](O)[C@H](O)[C@@H](OP(=O)(O)O)[C@H](OP(=O)(O)O)[C@H]1O [(1,4,5)IP3]
 | 0.708 | 1.74 |  |  | CN(C)c1ccc(C(=C2C=CC(=[N+](C)C)C=C2)c2ccc(C(=O)NCCCOP(=O)(O)O[C@@H]3[C@H](O)[C@H](O)[C@@H](OP(=O)(O)O)[C@H](OP(=O)(O)O)[C@H]3O)cc2)cc1 [MG(1,4,5)IP3]
 |  |  | 2±1 | 18±6 | O=P(O)(O)O[C@H]1[C@H](O)[C@@H](O)[C@H](OP(=O)(O)O)[C@@H](OP(=O)(O)O)[C@H]1O [(1,3,4)IP3]
11.5 | 6.31 |  |  |  | O=P(O)(O)O[C@@H]1[C@@H](O)[C@H](O)[C@H](O)[C@H](O)[C@H]1OP(=O)(O)O [(4,5)IP2]
